# Reference: US20240336565A1, “SOLID FORMS OF OSANETANT” (Acer Therapeutics, Inc., priority 2021, published 2024)
# What was measured:
# Format in all cases: physicochemical
# [1] = Long term stability: acid stability (2M HCl) at ambient temperature
# Protocol: (§1) Osanetant p-toluenesulfonic acid Form 1 and osanetant benzenesulfonic acid Form 1 were tested for long-term stability across a number of different conditions, as detailed below.
# Acid Stability at Ambient Temperature-Osanetant p-toluenesulfonic acid Form 1 and osanetant benzenesulfonic acid Form 1 were prepared at an osanetant content 10 times the normal working concentration then added to HPLC vials containing 2M HCl and stored in the dark at ambient laboratory conditions. Samples were diluted to 2 mg/mL for analysis and were taken after T=1, 2, 4, 7, and 14 days storage. […] The purity of the resulting material is described in Table 42: […]
# [2] = Long term stability: base (2M NaOH) at ambient temperature
# Protocol: as §1
# Base at Ambient Temperature—Osanetant p-toluenesulfonic acid Form 1 and osanetant benzenesulfonic acid Form 1 were prepared at an osanetant content 10 times the normal working concentration then added to HPLC vials containing 2M NaOH and stored in the dark at ambient laboratory conditions. Samples were diluted to 2 mg/mL for analysis and were taken after T=1, 2, 4, 7, and 14 days storage. […] The purity of the resulting material is described in Table 44: […]
# [3] = Long term stability: oxidation (6% H2O2) at ambient temperature
# Protocol: as §1
# Oxidation at Ambient Temperature-Osanetant p-toluenesulfonic acid Form 1 and osanetant benzenesulfonic acid Form 1 were prepared at an osanetant content 10 times the normal working concentration then added to HPLC vials containing 6% H2O2 and stored in the dark at ambient laboratory conditions. Samples were diluted to 2 mg/mL for analysis and were taken after T=1, 2, 4, 7, and 14 days storage. […] The purity of the resulting material is described in Table 46: […]
# [4] = Long term stability: oxidation (6% H2O2) at 60° C.
# Protocol: as §1
# Oxidation at 60° C.—Osanetant p-toluenesulfonic acid Form 1 and osanetant benzenesulfonic acid Form 1 were prepared at an osanetant content 10 times the normal working concentration then added to HPLC vials containing 6% H2O2 and stored in a darkened oven at 60° C. Samples were diluted to 2 mg/mL for analysis and were taken after T=1, 2, 4, 7, and 14 days storage. […] The purity of the resulting material is described in Table 47: […]
# [5] = Long term stability: thermal stability of solids at 60° C.
# Protocol: as §1
# Thermal stability of solids at 60° C.—Osanetant p-toluenesulfonic acid Form 1 and osanetant benzenesulfonic acid Form 1 were stored in a darkened oven at 60° C. in glass vials. Samples were taken after T=1, 2, 4, 7, and 14 days storage. […] The purity of the resulting material is described in Table 41: […]
# [6] = Long term stability: base (2M NaOH) at 60° C.
# Protocol: as §1
# Base at 60° C.—Osanetant p-toluenesulfonic acid Form 1 and osanetant benzenesulfonic acid Form 1 were prepared at an osanetant content 10 times the normal working concentration then added to HPLC vials containing 2M NaOH and stored in a darkened oven at 60° C. Samples were diluted to 2 mg/mL for analysis and were taken after T=1, 2, 4, 7, and 14 days storage. […] The purity of the resulting material is described in Table 45: […]
# [7] = Long term stability: acid stability (2M HCl) at 60° C.
# Protocol: as §1
# Acid Stability at 60° C.—Osanetant p-toluenesulfonic acid Form 1 and osanetant benzenesulfonic acid Form 1 were prepared at an osanetant content 10 times the normal working concentration then added to HPLC vials containing 2M HCl and stored in a darkened oven at 60° C. Samples were diluted to 2 mg/mL for analysis and were taken after T=1, 2, and 4 days storage.
smiles,measurement,setting,value
CC(=O)N(C)C1(c2ccccc2)CCN(CCCC2(c3ccc(Cl)c(Cl)c3)CCCN(C(=O)c3ccccc3)C2)CC1.O=S(=O)(O)c1ccccc1 (stereo not drawn) [benzenesulfonic acid Form 1],Control Purity,"[1]; 2M HCl ambient study, control",99.9
same,T = 1 month Purity,"[1]; 2M HCl, ambient, dark, 1 month",98.5
same,T = 1 day Purity,"[1]; 2M HCl, ambient, dark, 1 day",100.0
same,T = 2 day Purity,"[1]; 2M HCl, ambient, dark, 2 days",100.0
same,T = 4 day Purity,"[1]; 2M HCl, ambient, dark, 4 days",99.9
same,T = 7 day Purity,"[1]; 2M HCl, ambient, dark, 7 days",99.5
same,T = 14 day Purity,"[1]; 2M HCl, ambient, dark, 14 days",99.3
same,Control Purity,"[2]; 2M NaOH ambient study, control",99.9
same,T = 1 month Purity,"[2]; 2M NaOH, ambient, dark, 1 month",99.9
same,T = 1 day Purity,"[2]; 2M NaOH, ambient, dark, 1 day",99.9
same,T = 2 day Purity,"[2]; 2M NaOH, ambient, dark, 2 days",99.9
same,T = 4 day Purity,"[2]; 2M NaOH, ambient, dark, 4 days",99.9
same,T = 7 day Purity,"[2]; 2M NaOH, ambient, dark, 7 days",99.9
same,T = 14 day Purity,"[2]; 2M NaOH, ambient, dark, 14 days",100.0
same,T = 1 month Purity,"[3]; 6% H2O2, ambient, dark, 1 month",99.5
same,T = 1 day Purity,"[3]; 6% H2O2, ambient, dark, 1 day",99.9
same,T = 2 day Purity,"[3]; 6% H2O2, ambient, dark, 2 days",99.9
same,T = 4 day Purity,"[3]; 6% H2O2, ambient, dark, 4 days",99.9
same,T = 7 day Purity,"[3]; 6% H2O2, ambient, dark, 7 days",99.8
same,T = 14 day Purity,"[3]; 6% H2O2, ambient, dark, 14 days",99.8
same,Control Purity,"[3]; 6% H2O2 ambient study, control",99.9
same,Control Purity,"[4]; 6% H2O2 60° C. study, control",99.9
same,T = 1 month Purity,"[4]; 6% H2O2, 60° C., dark, 1 month",77.8
same,T = 1 day Purity,"[4]; 6% H2O2, 60° C., dark, 1 day",91.9
same,T = 2 day Purity,"[4]; 6% H2O2, 60° C., dark, 2 days",97.2
same,T = 4 day Purity,"[4]; 6% H2O2, 60° C., dark, 4 days",94.8
same,T = 7 day Purity,"[4]; 6% H2O2, 60° C., dark, 7 days",93.1
same,T = 14 day Purity,"[4]; 6% H2O2, 60° C., dark, 14 days",76.6
same,T = 1 month Purity,"[5]; solid at 60° C., dark, 1 month",100.0
same,T = 1 day Purity,"[5]; solid at 60° C., dark, 1 day",99.9
same,T = 2 day Purity,"[5]; solid at 60° C., dark, 2 days",99.9
same,T = 4 day Purity,"[5]; solid at 60° C., dark, 4 days",99.9
same,T = 7 day Purity,"[5]; solid at 60° C., dark, 7 days",99.9
same,T = 14 day Purity,"[5]; solid at 60° C., dark, 14 days",100.0
same,Control Purity,"[5]; solid, control, Purity = 100-total other substances",99.9
same,Control Purity,"[6]; 2M NaOH 60° C. study, control",99.9
same,T = 1 month Purity,"[6]; 2M NaOH, 60° C., dark, 1 month",95.8
same,T = 1 day Purity,"[6]; 2M NaOH, 60° C., dark, 1 day",99.7
same,T = 4 day Purity,"[6]; 2M NaOH, 60° C., dark, 4 days",98.5
same,T = 7 day Purity,"[6]; 2M NaOH, 60° C., dark, 7 days",97.3
same,T = 14 day Purity,"[6]; 2M NaOH, 60° C., dark, 14 days",95.5
same,Control Purity,"[7]; 2M HCl 60° C. study, control",99.9
same,T = 1 day Purity,"[7]; 2M HCl, 60° C., dark, 1 day",94.7
same,T = 2 day Purity,"[7]; 2M HCl, 60° C., dark, 2 days",89.2
same,T = 4 day Purity,"[7]; 2M HCl, 60° C., dark, 4 days",81.0
